According to publication PMC12720113, “The binding mechanism of a novel ferrous ion chelating peptide from chicken blood hemoglobin and the bioavailability of the chelate” (Food Chemistry: X, 2025):
Like-named read-outs stand apart in the source and are kept apart here. Marks after values point to notes of the source that are not given here. Where no end group is shown, it is not given here.

What was measured:
[1] = Effect of different dietary components on iron retention; assay type: in vitro ADME
Method: Then, the pH was adjusted to 2.0, and oxalic acid solution (1 %, w/v) was added. Gastrointestinal digestion simulation was then performed under the conditions described in 2.9.2. After the reaction was complete, the enzyme was inactivated, and the supernatant was collected after centrifugation. To assess the effects of phytate and dietary fiber on iron absorption, 1 % phytate and 8 % dietary fiber were added to the sample solution, and the digestion and measurement steps were repeated. By comparing changes in iron retention under different treatment conditions, the impacts of phytate and dietary fiber on the stability of […] chelate were analyzed. For calculations of iron retention rates, refer to Section 2.9.1.

[2] = Iron chelating rate (alcohol precipitation method); assay type: binding; conditions: synthesized peptide 1 mg/mL, pH 5 sodium acetate buffer, 1 mL + 2 mL FeCl2•4H2O 1.5 mM, 37 °C, 30 min, means ± SEM, three independent experiments
Method: The detection of iron chelation activity was performed using the method described by [Lin et al. (2021)]. The peptide solution was prepared using sodium acetate buffer. Subsequently, 1 mL of the peptide solution (1 mg/mL, pH 5) was mixed with 2 mL of FeCl₂•4H₂O (1.5 mM) and reacted at 37 °C for 30 min. Then, the alcohol precipitation method was used to determine the chelation rate of ferrous ions:(1) Iron chelating rate%=A−A1/A×100% where: A is the total amount of ions added; A1 is the content of free ions in the supernatant.
The peptides identified by mass spectrometry were synthesized by China Qiangyao Co., Ltd. (Shanghai, China) using Fmoc-protected amino acid solid-phase peptide synthesis, with the purity of these peptides evaluated at over 98 %. The ferrous ion chelating activity was verified using the method described in Section 2.3.

[3] = In vitro digestive simulation (iron retention); assay type: in vitro ADME
Method: In vitro simulated digestion of […] according to [Ding et al. (2025)]. […] To simulate the digestive processes of the stomach and intestines separately, the pH values of the three iron supplements were adjusted to 2.0 and 7.6, respectively, and pepsin and trypsin (3 %, w/w) were added separately. The mixture was incubated in a water bath at 37 °C for 2 h. To simulate the digestive processes of the gastrointestinal tract, the three iron supplements were subjected to simulated gastric digestion followed by intestinal digestion. The retention rates of iron after gastric digestion, intestinal digestion, and simulated gastrointestinal digestion were determined according to the method described in Section 2.9.1.

[4] = Temperature and pH stability test (iron retention); assay type: physicochemical; conditions: 1 mg/mL aqueous solution, 2 h
Method: The temperature stability of […]-Fe was determined using the method described by [Qu et al. (2022)]. The aqueous solution of […]-Fe (1 mg/mL) was incubated for 2 h at a temperature gradient of 30–80 °C and a pH gradient of 2–9. […]-Fe was separated using the alcohol precipitation method to calculate the iron retention rate:(2) Iron retention%=A−A0/A×100% where A represents the total iron content added to the reaction (mmol/mL), A0 represents the iron ion content in the supernatant after the reaction (mmol/mL).

[5] = Thermogravimetry (TG); assay type: physicochemical; conditions: TAEDKKLIQ from 249 °C to 426 °C; TAEDKKLIQ-Fe from 638 °C to 686 °C; 10 °C/min
Method: 5 mg of […] and […]-Fe lyophilized powders were weighed, respectively, and the thermal stability analysis was carried out by […]. The sample chamber temperature range is set from 50 to 800 °C, with a heating rate of 10 °C/min. The thermogravimetric change curves of the samples were recorded synchronously.

[6] = Intermolecular force analysis with dissociation reagents; assay type: physicochemical; conditions: 2 mg/mL, read at 500 nm
Method: Referring to the study by [Sun et al. (2020)], the intermolecular forces of […]-Fe were analyzed using different dissociation reagents. The absorbance values at 500 nm of the sample solution (2 mg/mL) were measured at the initial moment of the reaction (0 min) and after 30 min, respectively. At 30 min of the reaction, 1 mol/L NaCl, 30 mmol/L DTT (dithiothreitol), 0.5 % SDS, and 6 mol/L urea were added sequentially, followed immediately by absorbance detection using an enzyme meter.

[7] = system: Caco-2 cells; assay: Caco-2 cell viability assay (MTT); assay type: cell-based; conditions: 24 h, 490 nm, means ± SEM
Method: Caco-2 cell viability assay was conducted on […]-Fe according to the method of [Wu et al. (2019)]. And lactoferrin was chosen as an experimental control. When the cell fusion rate was close to 80 %, the cells were dissociated and passaged using the trypsin-EDTA mixed digest. Cultivate the 23rd generation of cells in the logarithmic growth phase at 37 °C and 5 % CO₂ for 24 h. Then, a gradient concentration of […]-Fe and Ac-[…]-Fe was added to the wells of the experimental group, and all the samples were incubated for 24 h. After incubation, 20 μL of MTT reagent was added to each well. After 2 h of reaction, 150 μL of DMSO was added and agitated for 10 min. The absorbance values at 490 nm were measured to reflect cell activity levels. Cell relative activity (%) was calculated:(3) Relative cell viability%=As−Ab/Ac−Ab×100 where: As represents the absorbance value of the sample treatment, Ab represents the absorbance value without cells, and Ac represents the absorbance value without sample treatment.

[8] = Zeta potential; assay type: physicochemical; conditions: 1 mg/mL solution, 25 °C, Zetasizer Nano ZSE
Method: (§1) An appropriate amount of […] and […]-Fe solutions with a concentration of 1 mg/mL were added to U-shaped cuvettes and equilibrated at a constant temperature of 25 °C for 5 s. The Zeta potential values and particle size distributions of the samples were determined using a Zetasizer Nano ZSE analyzer to evaluate their surface charge characteristics and solution stability.

[9] = Particle size distribution; assay type: physicochemical; conditions: 1 mg/mL solution, 25 °C, Zetasizer Nano ZSE
Method: as §1

## O=C([O-])[C@H](O)[C@@H](O)[C@H](O)[C@H](O)CO.O=C([O-])[C@H](O)[C@@H](O)[C@H](O)[C@H](O)CO.[Fe+2] [ferrous gluconate, reference compound]
[1]; 1 % oxalic acid, 1 % phytate or 8 % dietary fiber, then simulated gastrointestinal digestion, 37 °C
  Soluble iron content in the presence of phytic acid, oxalic acid or dietary fiber alone (rank): lower

## LSDLHAHKLR [Hemoglobin subunit alpha-A(84th–93th) peptide, synthesized]
[2]
  Chelation rate (%): 87.07 ± 0.12^b %

## QAWEKAASH [Hemoglobin subunit alpha-D(12th–20th) peptide, synthesized]
[2]
  Chelation rate (%): 81.38 ± 0.27^c %

## TAEDKKLIQ
[3]; pH 7.6, trypsin 3 % w/w, 37 °C, 2 h, after gastric phase
  Ferrous retention after transfer to simulated intestinal fluid digestion: significant increase in ferrous retention

## TAEDKKLIQ-Fe
[4]; alcohol precipitation
  Ferrous ion retention at 30 °C to 40 °C: no significant loss observed
[4]; pH range 6-9
  Iron retention, pH 6-9: above 88%
[4]; temperature gradient 30-80 °C, above 40 °C
  Overall retention of ferrous ions as the temperature continued to increase: above 40%
[5]
  Weight loss, second stage (TG): 12.32%
[6]; 30 mmol/L DTT added at 30 min, disulfide bonds
  Decrease in transmittance after DTT: 0.138
[6]; 0.5 % SDS added at 30 min, hydrophobic forces
  Decrease in transmittance after SDS: 0.103
[6]; 1 mol/L NaCl added at 30 min, electrostatic interactions
  Decrease in transmittance after NaCl: 0.20
[6]; 6 mol/L urea added at 30 min, hydrogen bonding
  Decrease in transmittance after urea: 0.09
[7]; Caco-2, 0.125 mg/mL
  Relative vitality of cells (%): 98.06 ± 1.22%
[7]; Caco-2, 0.25 mg/mL
  Relative vitality of cells (%): 97.72 ± 1.67%
[7]; Caco-2, 0.5 mg/mL
  Relative vitality of cells (%): 97.53 ± 0.89%
[7]; Caco-2, 1 mg/mL
  Relative vitality of cells (%): 97.21 ± 1.45%
[8]
  Zeta potential: 41.8 mV
[3]
  Iron retention in simulated digestion compared with the control iron supplements: superior to that of ferrous sulfate and ferrous gluconate
[9]
  Particle size, peak of the distribution: 295 nm
[1]
  Retention of soluble iron with phytic acid: 76.73%
  Soluble iron content in the presence of phytic acid, oxalic acid or dietary fiber alone (rank): highest level
